Results reported in US20260217697A1, “COMPOUNDS COMPRISING HETEROARYL RINGS AND COMPOSITIONS AND METHODS THEREOF” (lonGen Therapeutics Co., Ltd., priority 2022, published 2026).
pIC50: −log10 of the molar value.

Target: T1, hTRPV3 (Homo sapiens, UniProt Q8NET8)
T1 construct: The commercially available plasmid with the full-length cDNA of hTRPV3 (791 aa) (NM_001258205.2); host or cells: HEK293T
T1 sequence (Q8NET8 1-791 isoform Q8NET8-2): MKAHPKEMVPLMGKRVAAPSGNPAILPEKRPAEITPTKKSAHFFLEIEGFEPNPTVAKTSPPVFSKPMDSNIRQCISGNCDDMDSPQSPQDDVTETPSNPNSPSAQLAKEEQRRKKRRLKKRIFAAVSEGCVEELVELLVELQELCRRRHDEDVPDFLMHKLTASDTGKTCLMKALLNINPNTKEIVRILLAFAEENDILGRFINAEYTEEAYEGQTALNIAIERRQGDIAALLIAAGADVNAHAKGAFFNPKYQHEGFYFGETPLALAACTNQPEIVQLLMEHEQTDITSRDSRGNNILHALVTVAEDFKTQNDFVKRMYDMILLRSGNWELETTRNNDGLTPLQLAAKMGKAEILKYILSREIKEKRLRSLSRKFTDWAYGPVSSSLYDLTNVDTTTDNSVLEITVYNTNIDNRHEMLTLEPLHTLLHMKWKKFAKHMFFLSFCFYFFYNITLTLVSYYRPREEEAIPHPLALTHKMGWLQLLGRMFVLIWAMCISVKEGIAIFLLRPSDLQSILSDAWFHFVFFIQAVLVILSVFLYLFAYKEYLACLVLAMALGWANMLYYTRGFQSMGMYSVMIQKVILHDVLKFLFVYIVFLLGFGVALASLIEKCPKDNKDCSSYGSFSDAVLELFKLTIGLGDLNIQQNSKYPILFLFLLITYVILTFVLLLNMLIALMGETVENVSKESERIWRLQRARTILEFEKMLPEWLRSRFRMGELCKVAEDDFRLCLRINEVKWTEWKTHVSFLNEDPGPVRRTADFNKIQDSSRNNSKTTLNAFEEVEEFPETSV
Experiment: Whole-cell patch-clamp recording of hTRPV3 current in transfected HEK293T cells (2-APB induced)
Assay type: cell-based
Conditions: current induced by 300 μM 2-APB, compounds tested up to 10 μM, room temperature
Description: Various technologies can be utilized to assess TRPV3 activation in accordance with the present disclosure. For example, in some embodiments, compounds are assessed in in vitro patch clamp experiments. Certain useful procedures are described herein as examples.
In some embodiments, whole-cell patch-clamp recordings were used to detect the current through hTRPV3 channels in the HEK293T cell line transfected with hTRPV3 cDNA and evaluate the exact blocking effect of compounds on hTRPV3. In some embodiments, a perfusion system was adopted to control the extracellular solution, including the addition of the agonist and different antagonists.
HEK293T cells were cultured in a Dulbecco's modified Eagle's medium containing 10% fetal bovine serum (Thermo Scientific) and 1% penicillin/streptomycin (Thermo Scientific) at 37° C. with 5% CO2. The commercially available plasmid with the full-length cDNA of hTRPV3 (791 aa) (NM_001258205.2) was purchased from OriGene Technologies. The transfection of hTRPV3 plasmids was conducted using Lipofectamine™ 3000 following the manufacturer's instructions (Invitrogen).
Whole-cell patch-clamp experiments were performed 18 h post-transfection, using a MultiClamp 700B amplifier driven by pClamp 11 software (Molecular Devices). In order to achieve good single-cell physical separation, HEK293T cells with hTRPV3 expression were digested and then re-plated at low density on glass coverslips. Electrodes were pulled from borosilicate glass with a P-97 micropipette puller (Sutter Instruments) and those with resistances of 3-5 MΩ are used for experiments. In some embodiments, an Ag—AgCl wire was used as a reference electrode and signals are filtered using a 2.9 kHz low-pass Bessel filter. Membrane potential was held at 0 mV. For recording of agonist-induced activation and inhibition by different test compounds, currents were elicited by a protocol consisting of a 400-ms step to +80 mV, followed by a 400-ms step to −80 mV at 2-s intervals. both pipette and bath solutions contained 130 mM NaCl, 0.3 mM EDTA, and 3 mM HEPES (buffered to pH 7.4 with NaOH). All recordings were made at room temperature.
All patch-clamp recordings were analyzed using the Clampfit software and GraphPad Prism 6.0 software. Specifically, data are analyzed by calculating the degree of current amplitude after the test compound addition compared with the unblocked agonist-induced current amplitude. The resulting blocking percentage at each concentration was used to make a concentration-response analysis and fitted to the Hill equation: blocking percentage=minimum blocking percentage+ (maximum blocking percentage-minimum blocking percentage)/(1+10^(Hill slope* […])). The minimum blocking percentage is 0% and maximum blocking percentage is 100%, while the Hill slope and the IC50 were determined as the curve fitting routine. Compounds of interest were tested against hTRPV3 at concentrations up to 10 μM, and certain data was used to estimate IC50 as described herein.

Row | pIC50 | SMILES
1 | 6.00 to 7.00 | COc1ncnc(OC)c1C(=O)Nc1nc2c(s1)COc1cc(C(F)(F)F)ccc1-2 [compound 1, 4,6-dimethoxy-N-(7-(trifluoromethyl)-4H-chromeno[4,3-d]thiazol-2-yl)pyrimidine-5-carboxamide]
2 | ≤ 5.00 | COc1ncnc(OC)c1C(=O)Nc1nc2c(s1)CCc1ccccc1-2 [compound 2, N-(4,5-dihydronaphtho[1,2-d]thiazol-2-yl)-4,6-dimethoxypyrimidine-5-carboxamide]
3 | 5.00 to 6.00 | COc1ncnc(OC)c1C(=O)Nc1nc2c(s1)CCc1ccc(Cl)cc1-2 [compound 3, N-(8-chloro-4,5-dihydronaphtho[1,2-d]thiazol-2-yl)-4,6-dimethoxypyrimidine-5-carboxamide]
4 | ≤ 5.00 | COc1ncnc(OC)c1C(=O)Nc1nc2c(s1)CCCc1ccccc1-2 [compound 4, N-(5,6-dihydro-4H-benzo[6,7]cyclohepta[1,2-d]thiazol-2-yl)-4,6-dimethoxypyrimidine-5-carboxamide]
5 | ≤ 5.00 | COc1ncnc(OC)c1C(=O)Nc1nc2c(s1)CSc1ccc(Cl)cc1-2 [compound 5, N-(8-chloro-4H-thiochromeno[4,3-d]thiazol-2-yl)-4,6-dimethoxypyrimidine-5-carboxamide]
6 | ≤ 5.00 | COc1ncnc(OC)c1C(=O)Nc1nc2c(s1)COc1cc(Br)ccc1-2 [compound 6, N-(7-bromo-4H-chromeno[4,3-d]thiazol-2-yl)-4,6-dimethoxypyrimidine-5-carboxamide]
7 | 5.00 to 6.00 | COc1ncnc(OC)c1C(=O)Nc1nc2c(s1)Cc1ccc(Cl)cc1-2 [compound 7, N-(5-chloro-8H-indeno[1,2-d]thiazol-2-yl)-4,6-dimethoxypyrimidine-5-carboxamide]
8 | 6.00 to 7.00 | COc1ncnc(OC)c1C(=O)Nc1nc2c(s1)C(C)(C)Oc1cc(C(F)(F)F)ccc1-2 [compound 8, N-(4,4-dimethyl-7-(trifluoromethyl)-4H-chromeno[4,3-d]thiazol-2-yl)-4,6-dimethoxypyrimidine-5-carboxamide]
9 | ≤ 5.00 | COc1ncnc(OC)c1C(=O)Nc1nc2c(s1)c(=O)oc1cc(C(F)(F)F)ccc12 [compound 9, 4,6-dimethoxy-N-(4-oxo-7-(trifluoromethyl)-4H-chromeno[4,3-d]thiazol-2-yl)pyrimidine-5-carboxamide]
10 | ≤ 5.00 | COc1ncnc(OC)c1C(=O)Nc1nc2c(s1)COc1cc(F)ccc1-2 [compound 10, N-(7-fluoro-4H-chromeno[4,3-d]thiazol-2-yl)-4,6-dimethoxypyrimidine-5-carboxamide]
11 | ≤ 5.00 | COc1ccc2c(c1)OCc1sc(NC(=O)c3c(OC)ncnc3OC)nc1-2 [compound 11, 4,6-dimethoxy-N-(7-methoxy-4H-chromeno[4,3-d]thiazol-2-yl)pyrimidine-5-carboxamide]
12 | 6.00 to 7.00 | COc1ncnc(OC)c1C(=O)Nc1nc2c(s1)C1(CCCN(C(=O)OC(C)(C)C)C1)Oc1cc(C(F)(F)F)ccc1-2 (stereo not shown) [compound 12, tert-butyl 2-(4,6-dimethoxypyrimidine-5-carboxamido)-7-(trifluoromethyl)spiro[chromeno[4,3-d]thiazole-4,3′-piperidine]-1′-carboxylate]
13 | > 7.00 | COc1ncnc(OC)c1C(=O)Nc1nc2c(s1)C1(CCCCC1)Oc1cc(C(F)(F)F)ccc1-2 [compound 13, 4,6-dimethoxy-N-(7-(trifluoromethyl)spiro[chromeno[4,3-d]thiazole-4,1′-cyclohexan]-2-yl)pyrimidine-5-carboxamide]
14 | 5.00 to 6.00 | COc1ncnc(OC)c1C(=O)Nc1nc2c(s1)COc1cc(OC(=O)C(C)(C)C)ccc1-2 [compound 14, 2-(4,6-dimethoxypyrimidine-5-carboxamido)-4H-chromeno[4,3-d]thiazol-7-yl pivalate]
15 | ≤ 5.00 | COc1ncnc(OC)c1C(=O)Nc1nc2c(s1)COc1c-2cccc1C(F)(F)F [compound 15, 4,6-dimethoxy-N-(6-(trifluoromethyl)-4H-chromeno[4,3-d]thiazol-2-yl)pyrimidine-5-carboxamide]
16 | ≤ 5.00 | COc1ncnc(OC)c1C(=O)Nc1nc2c(s1)COc1ccc(C)cc1-2 [compound 16, 4,6-dimethoxy-N-(8-methyl-4H-chromeno[4,3-d]thiazol-2-yl)pyrimidine-5-carboxamide]
17 | ≤ 5.00 | COc1ccc2c(c1)-c1nc(NC(=O)c3c(OC)ncnc3OC)sc1CO2 [compound 17, 4,6-dimethoxy-N-(8-methoxy-4H-chromeno[4,3-d]thiazol-2-yl)pyrimidine-5-carboxamide]
18 | 5.00 to 6.00 | COc1ncnc(OC)c1C(=O)Nc1nc2c(s1)C1(CCC(C(C)(C)C)CC1)Oc1cc(C(F)(F)F)ccc1-2 (stereo not shown) [compound 18, N-(4′-(tert-butyl)-7-(trifluoromethyl)spiro[chromeno[4,3-d]thiazole-4,1′-cyclohexan]-2-yl)-4,6-dimethoxypyrimidine-5-carboxamide]
19 | 6.00 to 7.00 | COc1ncnc(OC)c1C(=O)NC1=NC2c3ccc(C(F)(F)F)cc3OC3(CCC3)C2S1 (stereo not shown) [compound 19, 4,6-dimethoxy-N-(7-(trifluoromethyl)-3a,9b-dihydrospiro[chromeno[4,3-d]thiazole-4,1′-cyclobutan]-2-yl)pyrimidine-5-carboxamide]
20 | 6.00 to 7.00 | COc1ncnc(OC)c1C(=O)Nc1nc2c(s1)C1(Oc3cc(C(F)(F)F)ccc3-2)C2CC3CC(C2)CC1C3 (stereo not shown) [compound 20, 4,6-dimethoxy-N-(7′-(trifluoromethyl)spiro[adamantane-2,4′-chromeno[4,3-d]thiazol]-2′-yl)pyrimidine-5-carboxamide]
21 | 6.00 to 7.00 | COc1ncnc(OC)c1C(=O)Nc1nc2c(s1)C1(CCOC1)Oc1cc(C(F)(F)F)ccc1-2 (stereo not shown) [compound 21, 4,6-dimethoxy-N-(7-(trifluoromethyl)-4′,5′-dihydro-2′H-spiro[chromeno[4,3-d]thiazole-4,3′-furan]-2-yl)pyrimidine-5-carboxamide]
22 | ≤ 5.00 | COc1ncnc(OC)c1C(=O)Nc1nc2c(s1)CCc1cc(C(F)(F)F)ccc1-2 [compound 22, 4,6-dimethoxy-N-(7-(trifluoromethyl)-4,5-dihydronaphtho[1,2-d]thiazol-2-yl)pyrimidine-5-carboxamide]
23 | 6.00 to 7.00 | COc1ncnc(OC)c1C(=O)Nc1nc2c(s1)C1(CCCC1)Oc1cc(C(F)(F)F)ccc1-2 [compound 23, 4,6-dimethoxy-N-(7-(trifluoromethyl)spiro[chromeno[4,3-d]thiazole-4,1′-cyclopentan]-2-yl)pyrimidine-5-carboxamide]
24 | > 7.00 | CCC1(CC)Oc2cc(C(F)(F)F)ccc2-c2nc(NC(=O)c3c(OC)ncnc3OC)sc21 [compound 24, N-(4,4-diethyl-7-(trifluoromethyl)-4H-chromeno[4,3-d]thiazol-2-yl)-4,6-dimethoxypyrimidine-5-carboxamide]
25 | > 7.00 | COc1ncnc(OC)c1C(=O)Nc1nc2c(s1)C(C)(c1ccccc1)Oc1cc(C(F)(F)F)ccc1-2 (stereo not shown) [compound 25, 4,6-dimethoxy-N-(4-methyl-4-phenyl-7-(trifluoromethyl)-4H-chromeno[4,3-d]thiazol-2-yl)pyrimidine-5-carboxamide]
